Measured values as given in PubChem BioAssay AID266 (DTP/NCI, 2004).
Values joined by “and” are separate entries in the source; they are usually repeats but may differ in a detail not shown here. Identical values can stand only once. Records with an inconclusive call do not appear.

Test system: Nude mice, LX-1 lung xenograft intrarenal, tumor weight T/C
Test: NCI In Vivo Anticancer Drug Screen. Data for tumor model Human Lung LX-1 Xenograft (intrarenal inoculation) in NU/NU BALB/C (nude) mice
Conditions: endpoint: mean tumor weight change, higher = larger tumour
Protocol: The antitumor activity of compounds was measured in mice bearing transplantable tumors. Survival or tumor size were measured and the results are expressed as the measurement made in the treated group (T) divided by the measurement made in the vehicle treated control group (C). The tumor model used in this assay is Human Lung LX-1 Xenograft (intrarenal inoculation) in NU/NU BALB/C (nude) mice

[1] = dose: 75.0 mg/kg/injection, schedule: Q04DX003 (sc), vehicle: saline with Tween-80
[2] = dose: 150.0 mg/kg/injection, schedule: Q04DX003 (sc), vehicle: saline with Tween-80
[3] = dose: 300.0 mg/kg/injection, schedule: Q04DX003 (sc), vehicle: saline with Tween-80
[4] = dose: 600.0 mg/kg/injection, schedule: Q04DX003 (sc), vehicle: saline with Tween-80
[5] = dose: 1200.0 mg/kg/injection, schedule: Q04DX003 (sc), vehicle: saline with Tween-80
[6] = dose: 2400.0 mg/kg/injection, schedule: Q04DX003 (sc), vehicle: saline with Tween-80
[7] = dose: 300.0 mg/kg/injection, schedule: Q04DX003 (sc), vehicle: saline
[8] = dose: 600.0 mg/kg/injection, schedule: Q04DX003 (sc), vehicle: saline
[9] = dose: 1200.0 mg/kg/injection, schedule: Q04DX003 (sc), vehicle: saline
[10] = dose: 2400.0 mg/kg/injection, schedule: Q04DX003 (sc), vehicle: saline
[11] = dose: 100.0 mg/kg/injection, schedule: Q01DX010 (sc), vehicle: saline with Tween-80
[12] = dose: 200.0 mg/kg/injection, schedule: Q01DX010 (sc), vehicle: saline with Tween-80

SMILES: O=S(=O)(N=N/C=C1\C=CC=CN1O)c1cccs1
- T/C (dose: 37.5 mg/kg/injection, schedule: Q04DX003 (sc), vehicle: saline with Tween-80): 121 % of control
- T/C [1]: 82 % of control
- T/C [2]: 103 % of control

SMILES: Nc1nc(N)c(N=O)c(Nc2ccc(Br)cc2)n1
- T/C [3]: 124 % of control
- T/C [4]: 95 % of control
- T/C [5]: 229 % of control
- T/C [6]: 93 % of control

SMILES: CN(C)/N=N/c1nc[nH]c1C(N)=O
- T/C (dose: 100.0 mg/kg/injection, schedule: Q04DX003 (sc), vehicle: Klucel (hydroxypropylcellulose) (HPC)): -25 % of control
- T/C (dose: 200.0 mg/kg/injection, schedule: Q01DX010 (sc), vehicle: Klucel (hydroxypropylcellulose) (HPC)): 2 % of control
- T/C (dose: 200.0 mg/kg/injection, schedule: Q04DX003 (sc), vehicle: Klucel (hydroxypropylcellulose) (HPC)): -43 % of control
- T/C (dose: 400.0 mg/kg/injection, schedule: Q04DX003 (sc), vehicle: Klucel (hydroxypropylcellulose) (HPC)): -91 % of control
- T/C (dose: 800.0 mg/kg/injection, schedule: Q04DX003 (sc), vehicle: Klucel (hydroxypropylcellulose) (HPC)): -100 % of control

SMILES: CN1c2c(nc(N)[nH]c2=O)NCC1CCNc1ccc(C(=O)NC(CCC(=O)O)C(=O)O)cc1 (centres undefined)
- T/C (dose: 100.0 mg/kg/injection, schedule: Q01DX010 (sc), vehicle: saline): 56 % of control
- T/C (dose: 200.0 mg/kg/injection, schedule: Q01DX010 (sc), vehicle: saline): 28 % of control
- T/C (dose: 400.0 mg/kg/injection, schedule: Q01DX010 (sc), vehicle: saline): 49 % of control
- T/C (dose: 800.0 mg/kg/injection, schedule: Q01DX010 (sc), vehicle: saline): 34 % of control

SMILES: CC(C)CCC(=O)c1ccoc1
- T/C (dose: 0.75 mg/kg/injection, schedule: Q01DX010 (ip), vehicle: saline with Tween-80): 123 % of control
- T/C (dose: 3.0 mg/kg/injection, schedule: Q01DX010 (ip), vehicle: saline with Tween-80): 71 % of control
- T/C (dose: 6.0 mg/kg/injection, schedule: Q01DX010 (ip), vehicle: saline with Tween-80): 73 % of control

SMILES: CCC1OC(OC)C=CC1=O (centres undefined)
- T/C (dose: 37.5 mg/kg/injection, schedule: Q04DX003 (sc), vehicle: saline): 90 % of control
- T/C (dose: 75.0 mg/kg/injection, schedule: Q04DX003 (sc), vehicle: saline): 99 % of control

SMILES: O=C(CN1CCOCC1)Nc1nc(-c2ccc(Cl)cc2)cs1
- T/C (dose: 100.0 mg/kg/injection, schedule: Q04DX003 (ip), vehicle: saline with Tween-80): 118 % of control
- T/C (dose: 200.0 mg/kg/injection, schedule: Q04DX003 (ip), vehicle: saline with Tween-80): 87 % of control
- T/C (dose: 400.0 mg/kg/injection, schedule: Q04DX003 (ip), vehicle: saline with Tween-80): 106 % of control
- T/C (dose: 800.0 mg/kg/injection, schedule: Q04DX003 (ip), vehicle: saline with Tween-80): 89 % of control

SMILES: COC(=O)c1ccc(N=NN(C)COC(C)=O)cc1
- T/C (dose: 155.52 mg/kg/injection, schedule: Q04DX003 (ip), vehicle: Klucel (hydroxypropylcellulose) (HPC)): 78 % of control
- T/C (dose: 259.2 mg/kg/injection, schedule: Q04DX003 (ip), vehicle: Klucel (hydroxypropylcellulose) (HPC)): 47 % of control
- T/C (dose: 432.0 mg/kg/injection, schedule: Q04DX003 (ip), vehicle: Klucel (hydroxypropylcellulose) (HPC)): 60 % of control
- T/C (dose: 720.0 mg/kg/injection, schedule: Q04DX003 (ip), vehicle: Klucel (hydroxypropylcellulose) (HPC)): 64 % of control

SMILES: [Cl][Hg][Cl]
- T/C (dose: 2.5 mg/kg/injection, schedule: Q04DX003 (ip), vehicle: saline): 92 % of control
- T/C (dose: 5.0 mg/kg/injection, schedule: Q04DX003 (ip), vehicle: saline): 82 % of control
- T/C (dose: 10.0 mg/kg/injection, schedule: Q04DX003 (ip), vehicle: saline): 58 % of control

SMILES: COC(=O)CC(N)C(=O)O (centres undefined)
- T/C [7]: 84 % of control
- T/C [8]: 80 % of control
- T/C [9]: 55 % of control
- T/C [10]: 54 % of control

SMILES: Cc1ccc(S(=O)(=O)NC(=S)S)cc1
- T/C [11]: 203 % of control
- T/C [12]: 111 % of control
- T/C (dose: 400.0 mg/kg/injection, schedule: Q01DX010 (sc), vehicle: saline with Tween-80): 196 % of control

SMILES: O=NN(CCCl)C(=O)NCCCl
- T/C (dose: 4.0 mg/kg/injection, schedule: Q01DX010 (ip), vehicle: saline): 32 % of control and 48 % of control
- T/C (dose: 13.33 mg/kg/injection, schedule: Q04DX003 (ip), vehicle: saline): 9 % of control and 10 % of control
- T/C (dose: 16.0 mg/kg/injection, schedule: Q01DX010 (ip), vehicle: saline): -69 % of control and -87 % of control
- T/C (dose: 26.66 mg/kg/injection, schedule: Q04DX003 (ip), vehicle: saline): -21 % of control

SMILES: FC(F)(F)c1nc2nc(Cl)c(Cl)nc2[nH]1
- T/C [1]: 116 % of control
- T/C [2]: 74 % of control
- T/C [3]: 68 % of control

SMILES: [N-]=[N+]=[N-]
- T/C (dose: 6.0 mg/kg/injection, schedule: Q04DX003 (ip), vehicle: water): 68 % of control
- T/C (dose: 24.0 mg/kg/injection, schedule: Q04DX003 (ip), vehicle: water): 73 % of control

SMILES: COc1ccc(S(=O)(=O)N/N=C/C(=O)O)cc1
- T/C (dose: 50.0 mg/kg/injection, schedule: Q01DX010 (sc), vehicle: saline with Tween-80): 210 % of control
- T/C [11]: 119 % of control
- T/C [12]: 72 % of control

SMILES: N#CCCSC(=S)C1CCCC1=N (centres undefined)
- T/C [3]: 84 % of control
- T/C [4]: 79 % of control
- T/C [5]: 102 % of control
- T/C [6]: 91 % of control

SMILES: CC(=O)NC(Cc1ccc(F)cc1)C(=O)O (centres undefined)
- T/C [3]: 112 % of control
- T/C [4]: 71 % of control
- T/C [5]: 91 % of control
- T/C [6]: 107 % of control

SMILES: CC(=O)OCN(C)C=O
- T/C (dose: 300.0 mg/kg/injection, schedule: Q01DX010 (sc), vehicle: water): 65 % of control
- T/C (dose: 600.0 mg/kg/injection, schedule: Q01DX010 (sc), vehicle: water): 52 % of control
- T/C (dose: 1200.0 mg/kg/injection, schedule: Q01DX010 (sc), vehicle: water): 40 % of control
- T/C (dose: 2400.0 mg/kg/injection, schedule: Q01DX010 (sc), vehicle: water): 45 % of control

SMILES: C[n+]1c(-c2cccc3ccccc23)c2cc(N)ccc2c2ccccc21
- T/C (dose: 1.5 mg/kg/injection, schedule: Q04DX003 (sc), vehicle: saline): 164 % of control
- T/C (dose: 6.0 mg/kg/injection, schedule: Q04DX003 (sc), vehicle: saline): 113 % of control
- T/C (dose: 24.0 mg/kg/injection, schedule: Q04DX003 (sc), vehicle: saline): 112 % of control
- T/C (dose: 48.0 mg/kg/injection, schedule: Q04DX003 (sc), vehicle: saline): 78 % of control

SMILES: NC(N)=NOCC[C@@H](N)C(=O)O
- T/C [7]: 91 % of control
- T/C [8]: 91 % of control
- T/C [9]: 82 % of control
- T/C [10]: 59 % of control

SMILES: COC1=C(OC)C(=O)C(SC/C=C(\C)CCCC(C)CCCC(C)CCCC(C)C)=CC1=O (centres undefined)
- T/C (dose: 300.0 mg/kg/injection, schedule: Q04DX003 (ip), vehicle: saline with Tween-80): 82 % of control
- T/C (dose: 600.0 mg/kg/injection, schedule: Q04DX003 (ip), vehicle: saline with Tween-80): 110 % of control
- T/C (dose: 1200.0 mg/kg/injection, schedule: Q04DX003 (ip), vehicle: saline with Tween-80): 72 % of control

SMILES: Cn1cc(C2NC(=O)c3ccccc3N2)c2ccccc21 (centres undefined)
- T/C (dose: 300.0 mg/kg/injection, schedule: Q04DX003 (sc), vehicle: Klucel (hydroxypropylcellulose) (HPC)): 83 % of control and 103 % of control
- T/C (dose: 900.0 mg/kg/injection, schedule: Q04DX003 (sc), vehicle: Klucel (hydroxypropylcellulose) (HPC)): 111 % of control and 92 % of control
- T/C (dose: 1200.0 mg/kg/injection, schedule: Q04DX003 (sc), vehicle: Klucel (hydroxypropylcellulose) (HPC)): 90 % of control and 103 % of control

SMILES: CCN(CC)CCOCCO
- T/C (dose: 150.0 mg/kg/injection, schedule: Q04DX003 (sc), vehicle: saline): 109 % of control
- T/C [7]: 105 % of control
- T/C [8]: 86 % of control
- T/C [9]: 77 % of control

SMILES: CC(C)CCCCCCCCCCCCC(=O)NCC(=O)NC1C(O)C(O)C(Nc2ncnc3nc[nH]c23)OC1C(O)CO (centres undefined)
- T/C (dose: 0.4 mg/kg/injection, schedule: Q01DX010 (sc), vehicle: saline): 98 % of control
- T/C (dose: 0.8 mg/kg/injection, schedule: Q01DX010 (sc), vehicle: saline): 24 % of control

SMILES: CCCCNc1ccc2nnc(C)n2n1
- T/C (dose: 150.0 mg/kg/injection, schedule: Q04DX003 (ip), vehicle: DMSO): 99 % of control

SMILES: NC(CNC(=O)CBr)C(=O)O (centres undefined)
- T/C (dose: 75.0 mg/kg/injection, schedule: Q04DX003 (sc), vehicle: water): 105 % of control
- T/C (dose: 150.0 mg/kg/injection, schedule: Q04DX003 (sc), vehicle: water): 79 % of control

SMILES: CCOC1=Cc2c(oc3c(C(C)(C)C)cc(OCC)cc23)OC(C(C)(C)C)=C1
- T/C [2]: 92 % of control
- T/C [3]: 101 % of control
- T/C [4]: 102 % of control
